In paper PMC7072815, “Nrp1 is Activated by Konjac Ceramide Binding-Induced Structural Rigidification of the a1a2 Domain” (Cells, 2020):

Molecular target: T1, neuropilin 1 (Nrp1) (Mus musculus, UniProt P97333)
T1 construct: a1a2 domain (residues 23−269), His6-tag, pCold-ProS2 vector, E. coli
T1 sequence (P97333 23-269): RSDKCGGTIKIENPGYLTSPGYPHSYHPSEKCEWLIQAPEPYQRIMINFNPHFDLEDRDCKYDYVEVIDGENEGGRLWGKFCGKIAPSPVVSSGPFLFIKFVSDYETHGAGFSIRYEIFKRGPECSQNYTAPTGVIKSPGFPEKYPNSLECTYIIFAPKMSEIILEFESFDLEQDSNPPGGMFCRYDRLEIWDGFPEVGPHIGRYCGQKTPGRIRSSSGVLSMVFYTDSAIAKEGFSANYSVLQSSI
Assay: quantitative fluorescent dot-blot saturation binding to purified a1a2

- Kd: 114 ± 5 nM
Substance: d4t,8t-NBD-Ceramide
